Assay: xn = mol fraction of the nth substance listed
Conditions: 101 kPa, Liquid; for speed of sound: Sing-around technique in a fixed-path interferometer; for mass density: Vibrating tube method

CCCCCCCCCCCC[n+]1ccn(C)c1.[Cl-] [1-dodecyl-3-methylimidazolium chloride] + O
Conditions	mass density [kg/m3]	speed of sound [m/s]
298 K, x1 = 2.7e-05	997.065	–
298 K, x1 = 3e-05	997.081	–
298 K, x1 = 4.8e-05	997.081	–
298 K, x1 = 7.4e-05	997.07	–
298 K, x1 = 9.4e-05	997.061	–
298 K, x1 = 0.000109	997.064	–
298 K, x1 = 0.000129	997.078	–
298 K, x1 = 0.000145	997.058	–
298 K, x1 = 0.000163	997.076	–
298 K, x1 = 0.000181	997.056	–
298 K, x1 = 0.000208	997.055	–
298 K, x1 = 0.000234	997.049	–
298 K, x1 = 0.000248	997.059	–
298 K, x1 = 0.000273	997.045	–
298 K, x1 = 0.000286	997.042	–
298 K, x1 = 0.000302	997.023	–
298 K, x1 = 0.000319	997.039	–
298 K, x1 = 0.000341	997.023	–
298 K, x1 = 0.000384	997.011	–
298 K, x1 = 0.000407	996.995	–
298 K, x1 = 0.000428	996.98	–
298 K, x1 = 0.0428	–	1500.7
303 K, x1 = 2.7e-05	995.678	–
303 K, x1 = 3e-05	995.688	–
303 K, x1 = 4.8e-05	995.688	–
303 K, x1 = 7.4e-05	995.68	–
303 K, x1 = 9.4e-05	995.666	–
303 K, x1 = 0.000109	995.667	–
303 K, x1 = 0.000129	995.679	–
303 K, x1 = 0.000145	995.66	–
303 K, x1 = 0.000163	995.674	–
303 K, x1 = 0.000181	995.656	–
303 K, x1 = 0.000208	995.653	–
303 K, x1 = 0.000234	995.647	–
303 K, x1 = 0.000248	995.65	–
303 K, x1 = 0.000273	995.635	–
303 K, x1 = 0.000286	995.632	–
303 K, x1 = 0.000302	995.606	–
303 K, x1 = 0.000319	995.625	–
303 K, x1 = 0.000341	995.608	–
303 K, x1 = 0.000384	995.594	–
303 K, x1 = 0.000407	995.571	–
303 K, x1 = 0.000428	995.568	–
303 K, x1 = 0.0027	–	1509.5
303 K, x1 = 0.003	–	1509.5
303 K, x1 = 0.0048	–	1509.8
303 K, x1 = 0.0074	–	1510.1
303 K, x1 = 0.0094	–	1510.4
303 K, x1 = 0.0109	–	1510.6
303 K, x1 = 0.0129	–	1510.8
303 K, x1 = 0.0145	–	1511
303 K, x1 = 0.0163	–	1511.2
303 K, x1 = 0.0181	–	1511.4
303 K, x1 = 0.0208	–	1511.8
303 K, x1 = 0.0234	–	1512
303 K, x1 = 0.0248	–	1512.1
303 K, x1 = 0.0273	–	1512.3
303 K, x1 = 0.0286	–	1512.3
303 K, x1 = 0.0302	–	1512.4
303 K, x1 = 0.0319	–	1512.5
303 K, x1 = 0.0341	–	1512.6
303 K, x1 = 0.0384	–	1512.5
303 K, x1 = 0.0407	–	1512.7
303 K, x1 = 0.0428	–	1512.7
308 K, x1 = 2.7e-05	994.072	–
308 K, x1 = 3e-05	994.075	–
308 K, x1 = 4.8e-05	994.073	–
308 K, x1 = 7.4e-05	994.068	–
308 K, x1 = 9.4e-05	994.05	–
308 K, x1 = 0.000109	994.047	–
308 K, x1 = 0.000129	994.059	–
308 K, x1 = 0.000145	994.046	–
308 K, x1 = 0.000163	994.052	–
308 K, x1 = 0.000181	994.039	–
308 K, x1 = 0.000208	994.032	–
308 K, x1 = 0.000234	994.027	–
308 K, x1 = 0.000248	994.022	–
308 K, x1 = 0.000273	994.008	–
308 K, x1 = 0.000286	994.004	–
308 K, x1 = 0.000302	993.979	–
308 K, x1 = 0.000319	993.993	–
308 K, x1 = 0.000341	993.986	–
308 K, x1 = 0.000384	993.958	–
308 K, x1 = 0.000407	993.935	–
308 K, x1 = 0.000428	993.939	–
308 K, x1 = 0.0027	–	1520.1
308 K, x1 = 0.003	–	1520.2
308 K, x1 = 0.0048	–	1520.4
308 K, x1 = 0.0074	–	1520.7
308 K, x1 = 0.0094	–	1521
308 K, x1 = 0.0109	–	1521.1
308 K, x1 = 0.0129	–	1521.3
308 K, x1 = 0.0145	–	1521.5
308 K, x1 = 0.0163	–	1521.7
308 K, x1 = 0.0181	–	1521.9
308 K, x1 = 0.0208	–	1522.2
308 K, x1 = 0.0234	–	1522.4
308 K, x1 = 0.0248	–	1522.5
308 K, x1 = 0.0273	–	1522.7
308 K, x1 = 0.0286	–	1522.8
308 K, x1 = 0.0302	–	1522.8
308 K, x1 = 0.0319	–	1522.9
308 K, x1 = 0.0341	–	1523
308 K, x1 = 0.0384	–	1522.8
308 K, x1 = 0.0407	–	1523
308 K, x1 = 0.0428	–	1523
313 K, x1 = 2.7e-05	992.261	–
313 K, x1 = 3e-05	992.046	–
313 K, x1 = 7.4e-05	992.253	–
313 K, x1 = 9.4e-05	992.137	–
313 K, x1 = 0.000109	992.207	–
313 K, x1 = 0.000129	992.221	–
313 K, x1 = 0.000145	992.226	–
313 K, x1 = 0.000163	992.224	–
313 K, x1 = 0.000181	992.217	–
313 K, x1 = 0.000208	992.206	–
313 K, x1 = 0.000234	992.203	–
313 K, x1 = 0.000248	992.194	–
313 K, x1 = 0.000273	992.178	–
313 K, x1 = 0.000286	992.177	–
313 K, x1 = 0.000302	992.159	–
313 K, x1 = 0.000319	992.158	–
313 K, x1 = 0.000341	992.147	–
313 K, x1 = 0.000384	992.121	–
313 K, x1 = 0.000407	992.068	–
313 K, x1 = 0.000428	992.103	–
313 K, x1 = 0.0027	–	1529.2
313 K, x1 = 0.003	–	1529.2
313 K, x1 = 0.0074	–	1529.7
313 K, x1 = 0.0094	–	1530
313 K, x1 = 0.0109	–	1530.1
313 K, x1 = 0.0129	–	1530.3
313 K, x1 = 0.0145	–	1530.4
313 K, x1 = 0.0163	–	1530.6
313 K, x1 = 0.0181	–	1530.8
313 K, x1 = 0.0208	–	1531.1
313 K, x1 = 0.0234	–	1531.3
313 K, x1 = 0.0248	–	1531.4
313 K, x1 = 0.0273	–	1531.5
313 K, x1 = 0.0286	–	1531.6
313 K, x1 = 0.0302	–	1531.6
313 K, x1 = 0.0319	–	1531.7
313 K, x1 = 0.0341	–	1531.8
313 K, x1 = 0.0384	–	1531.6
313 K, x1 = 0.0407	–	1531.8
313 K, x1 = 0.0428	–	1531.8

Source: the NIST ThermoML archive (doi:10.1016/j.jct.2012.11.032)
